Results as given in ChEMBL document CHEMBL3400041, “Pyridinic analog of the natural product (-)-spectaline as potential adjuvant for the treatment of central nervous system disorders” (Bioorg Med Chem Lett, 2015).
Calls of active or inactive are those of the source. No cut-off for these calls is given here.

How the values were obtained:
Mus musculus [1] = assay: Antischizophrenic activity in mouse assessed as inhibition of apomorphine-induced climbing behavior at 10 mg/kg, po; type: functional, organism-based; design: dose 10 mg/kg
Mus musculus [2] = assay: Antidepressant-like activity in mouse assessed as decrease in immobility time at 5 to 10 mg/kg, po by forced swimming test; type: functional, organism-based
Mus musculus [3] = assay: Toxicity in mouse assessed as rearing behavior at 10 mg/kg, po by spontaneous locomotor activity test; type: organism-based; design: dose 10 mg/kg, route oral; conditions: in vivo
Mus musculus [4] = assay: Effect on CNS activity in mouse assessed as reduction in number of groomings at 10 mg/kg, po by spontaneous locomotor activity test; type: functional, organism-based; design: dose 10 mg/kg; conditions: Central nervous system
Mus musculus [5] = assay: Effect on CNS activity in mouse assessed as reduction in exploratory behaviour at 10 mg/kg, po by spontaneous locomotor activity test; type: functional, organism-based; design: dose 10 mg/kg; conditions: Central nervous system
Mus musculus [6] = assay: Antischizophrenic activity in mouse assessed as inhibition of apomorphine-induced climbing behavior at 5 mg/kg, po; type: functional, organism-based; design: dose 5 mg/kg
Mus musculus [7] = assay: Antidepressant-like activity in mouse assessed as decrease in immobility time at 10 mg/kg, po by forced swimming test; type: functional, organism-based; design: dose 10 mg/kg
Mus musculus [8] = assay: Antischizophrenic activity in mouse assessed as inhibition of apomorphine-induced climbing behavior at 5 to 10 mg/kg, po; type: functional, organism-based

CCOC(=O)CSc1ncccc1[N+](=O)[O-]
inhibition (Mus musculus [1]): Active | Activity (Mus musculus [2]): Active | Activity (Mus musculus [3]): Non-toxic | Activity (Mus musculus [4]): Active | Activity (Mus musculus [5]): Active

CN1CCN(C2=Nc3cc(Cl)ccc3Nc3ccccc32)CC1
inhibition (Mus musculus [6]): Active

CN(C)CCCN1c2ccccc2CCc2ccccc21
Activity (Mus musculus [7]): Active

CCOC(=O)CSc1ccc([N+](=O)[O-])c(SCC(=O)OCC)n1
inhibition (Mus musculus [8]): inactive | Activity (Mus musculus [2]): inactive | Activity (Mus musculus [3]): Non-toxic | Activity (Mus musculus [4]): Active | Activity (Mus musculus [5]): Active

CCOC(=O)CSc1nc(Cl)ccc1[N+](=O)[O-]
inhibition (Mus musculus [8]): inactive | Activity (Mus musculus [2]): inactive | Activity (Mus musculus [3]): Non-toxic | Activity (Mus musculus [4]): Active | Activity (Mus musculus [5]): Active
